Results published in article PMC11219871, “Epigenetic-based differentiation therapy for Acute Myeloid Leukemia” (Nature Communications, 2024).
“And” between values parts separate entries of the source, which are not always exact repeats. Identical values can stand only once. Like-named read-outs stand apart in the source and are kept apart here.

How the values were obtained:
Type in all cases: cell-based, human
[1] = system: ML-2; test: Cell proliferation assay: GI50
Method: (§1) Cell proliferation was analyzed using the CellTiter 96 Aqueous One Solution Cell Proliferation Assay (Promega, Madison, WI). This is a colorimetric method for determining the number of viable cells in proliferation. For the assay, suspension cells were cultured in triplicate at a density of 1 × 10^6 cells/mL in 96-well plates (100.000 cells/well, 100 µL/well), using only the 60 inner wells to avoid any border effects. […] Then, the cells were incubated with 100 μL/well of medium and 20 μL/well of CellTiter 96 Aqueous One Solution reagent for 1–3 h. […] The background absorbance was measured in wells with only cell line medium and solution reagent. First, the average of the absorbance from the control wells was subtracted from all other absorbance values. Data were calculated as the percentage of total absorbance of treated cells/absorbance of non-treated cells. The GI50 values of the different compounds were determined using non-linear regression plots made with GraphPad Prism v5 software.

[2] = system: HL-60; test: Cell proliferation assay: GI50
Method: as §1

[3] = system: MOLM-13; test: Cell proliferation assay: GI50
Method: as §1

[4] = system: MV4-11; test: Cell proliferation assay: GI50
Method: as §1

[5] = system: ML-2; test: Differentiation-apoptosis assay, CD11b / annexin-V / Sytox Green / myeloid markers flow cytometry; design: Cell viability: concentration or dose not given beside the values; CD11b levels: unit not given here; settings: for CD11b / Cell viability: replicates (Fig 4A)
Method: Next, the cells were washed twice with phosphate-buffered saline (PBS) and resuspended in 1X Binding Buffer at a concentration of 1 × 10^6 cells/mL. An 8-µL aliquot of APC-CD11b (BD Pharmingen, Franklin Lakes, NJ, USA) and 1 µL of FITC annexin-V (AV) (BD Pharmingen, Franklin Lakes, NJ, USA) antibodies were added and incubated for 15 min at room temperature in the dark. Finally, after the addition of 400 µL of 1X Binding Buffer to each tube, samples were collected on a BD FACSCanto flow cytometer (Becton Dickinson, San Jose, CA, USA) and analyzed using FlowJo software.
For the rest of experiments, the mix of antibodies (2 µL of BV786-CD13, Cat No, 744748 BD; 1 µL of diluted 1:10 antibody of PB-HLADR, Cat No 307633, Biolegend; 5 µL of APCH7-CD14, Cat No 641394, BD) was added to 10 µL of Brilliant Stain Buffer Plus (Becton Dickinson, San Jose, CA, USA). Then, 1 million cells (volume of 250 µL) were added and incubated for 30 min at room temperature in darkness. After 10 min incubation at room temperature with 2 mL of FACSLysing 1X, cells were centrifuged at 540 g for 5 min and washed twice with FACSBuffer. Finally, after centrifugation at 540 g for 5 min cells were resuspended in FACSBuffer.

[6] = system: HL-60; test: as above; design: Cell viability (%): concentration or dose not given beside the values; CD11b levels: unit not given here
Summary of the method: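 HL-60 cells were stained for the myeloid differentiation marker CD11b, with annexin-V and Sytox Green marking apoptosis and cell death. Cells were washed in PBS and resuspended at 1 × 10^6 cells/mL in binding buffer; marker staining of 1 million cells was for 30 min at room temperature in the dark, followed by red-cell lysis. Readout was flow cytometry.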

[7] = ML-2, daily treatment, time 0 days, replicates 1-3 (Figure 2B)
[8] = ML-2, daily treatment, time 2 days, replicates 1-3 (Figure 2B)
[9] = ML-2, daily treatment, time 4 days, replicates 1-3 (Figure 2B)
[10] = ML-2, daily treatment, time 6 days, replicates 1-3 (Figure 2B)
[11] = ML-2, daily treatment, time 8 days, replicates 1-3 (Figure 2B)
[12] = HL-60, 48 h treatment, replicates 1-3 (Suppl. Fig. 5A)
[13] = HL-60, daily treatment, time 0 days, replicates 1-3 (Figure 2B)
[14] = HL-60, daily treatment, time 2 days, replicates 1-3 (Figure 2B)
[15] = HL-60, daily treatment, time 4 days, replicates 1-3 (Figure 2B)
[16] = HL-60, daily treatment, time 6 days, replicates 1-3 (Figure 2B)
[17] = HL-60, daily treatment, time 8 days, replicates 1-3 (Figure 2B)

## COc1cc2nc(-c3cc(C)oc3C)cc(NCC3CCN(c4ncc(C(=O)NO)cn4)CC3)c2cc1OC [CM-1758, 2-[4-[[[2-(2,5-dimethyl-3-furyl)-6,7-dimethoxy-4-quinolyl]amino]methyl] -1-piperidyl]pyrimidine-5-carbohydroxamic acid]
[1]; Homo sapiens, ML-2, 48 h
  GI50: 0.844 µM
[1]; Homo sapiens, ML-2, ML-2, replicates 1-3
  GI50: 0.869 µM
[1]; ML-2, replicates 1-3
  GI50: 0.812 µM and 0.849 µM
[2]; HL-60, replicates 1-3, read-out: GI50
  GI50: 1.02 µM and 1.18 µM
[2]; Homo sapiens, HL-60, 48 h, 48 h, read-out: HL-60 GI50
  GI50: 1.19 µM
[2]; Homo sapiens, HL-60, HL-60, replicates 1-3, read-out: GI50
  GI50: 1.36 µM
[3]; Homo sapiens, MOLM-13, 48 h
  GI50: 0.558 µM
[3]; Homo sapiens, MOLM-13, MOLM-13, replicates 1-3
  GI50: 0.412 µM
[3]; MOLM-13, replicates 1-3
  GI50: 0.685 µM and 0.576 µM
[4]; Homo sapiens, MV4-11, 48 h
  GI50: 0.292 µM
[4]; MV4-11, replicates 1-3
  GI50: 0.498 µM and 0.125 µM and 0.252 µM
[5]; ML-2, 260 nM CM-444 or 210 nM CM-1758 daily for 4 days, before injection
  percentage of CD11b: > 90%
[5]; ML-2, 48 h
  CD11b (%): 75.6%
  CD13 (%): 98.6%
  CD14 (%): 2.86%
  HLA-DR (%): 17.4%
  CD11b: 64.3% and 61.7% and 64.6%
  Cell viability: 89.3% and 72.6% and 87.1%
[5]; ML-2, after 6–8 days of treatment
  differentiation level (CD11b): ~90%
[5]; [7]
  Annexin-V (%): 0% and 1.81% and 2.3%
  CD11b (%): 9.3% and 9.32% and 7.24%
[5]; [8]
  Annexin-V (%): 0% and 5.74% and 8.47%
  CD11b (%): 46.98% and 27.2% and 35.8%
[5]; [9]
  Annexin-V (%): 10.26% and 4.49% and 5.25%
  CD11b (%): 56.51% and 40.8% and 55.87%
[5]; [10]
  Annexin-V (%): 4.87% and 1.99% and 9.87%
  CD11b (%): 77.98% and 70% and 78.6%
[5]; [11]
  Annexin-V (%): 5.37% and 6.87% and 10.45%
  CD11b (%): 88.06% and 83.2% and 89.7%
[5]; ML-2 cell line, replicates 1-3 (Figure 2A)
  CD11b (%): 53.45% and 67.6% and 52.5%
[5]; ML-2 treated daily for 48 h, replicates (Fig 6E)
  CD11b levels: 45.9 and 51.7 and 43.7
[6]; HL-60, 270 nM CM-444 or 300 nM CM-1758 daily for 4 days, before injection
  percentage of CD11b: > 90%
[6]; HL-60, 48 h
  CD11b (%): 71.2%
  CD13 (%): 100%
  CD14 (%): 18.9%
  HLA-DR (%): 12.2%
[6]; [12]
  CD11b (%): 65.4% and 71.1% and 68.4%
  Cell viability (%): 82.8% and 73.6% and 69.5%
[6]; HL-60, after 6–8 days of treatment
  differentiation level (CD11b): ~90%
[6]; HL-60, daily 25% GI50, 48 h
  Annexin V (%) Replicate 1: 0.26%
  Annexin V (%) Replicate 2: 0.17%
  Annexin V (%) Replicate 3: 0.14%
  CD11b (%) Replicate 1: 55.36%
  CD11b (%) Replicate 2: 68.41%
  CD11b (%) Replicate 3: 67.15%
[6]; [13]
  Annexin-V (%): 0% and 4.96% and 3.21%
  CD11b (%): 13.33% and 12.5% and 10.8%
[6]; [14]
  Annexin-V (%): 5.66% and 3.51% and 4.98%
  CD11b (%): 74.44% and 64.2% and 68.7%
[6]; [15]
  Annexin-V (%): 0% and 4.07% and 5.87%
  CD11b (%): 86.57% and 79.2% and 77.3%
[6]; [16]
  Annexin-V (%): 5.76% and 2.68% and 3.98%
  CD11b (%): 94.42% and 89.2% and 90.5%
[6]; [17]
  Annexin-V (%): 0% and 5.21% and 6.98%
  CD11b (%): 96% and 92.9% and 94.7%
[6]; HL-60 cell line, replicates 1-3 (Figure 2A)
  CD11b (%): 81.73% and 89.6% and 92.1%
[6]; HL-60 treated daily for 48 h, replicates (Fig 6D)
  CD11b levels: 61.2 and 70.4 and 75.9

## O=C(CCCCCCC(=O)Nc1ccccc1)NO [Vorinostat, reference compound]
[1]; Homo sapiens, ML-2, 48 h
  GI50: 4.5 µM
[1]; Homo sapiens, ML-2, ML-2, replicates 1-3, µM for the other inhibitors
  GI50: 4.3 µM
[1]; ML-2, replicates 1-3, µM for the other inhibitors
  GI50: 4.2 µM and 5 µM
[2]; HL-60, replicates 1-3, µM for the other inhibitors, read-out: GI50
  GI50: 4.9 µM and 5.6 µM
[2]; Homo sapiens, HL-60, 48 h, read-out: GI50
  GI50: 5.2 µM
[2]; Homo sapiens, HL-60, HL-60, replicates 1-3, µM for the other inhibitors, read-out: GI50
  GI50: 5.1 µM
[3]; Homo sapiens, MOLM-13, 48 h
  GI50: 3.2 µM
[3]; Homo sapiens, MOLM-13, MOLM-13, replicates 1-3, µM for the other inhibitors
  GI50: 3.1 µM
[3]; MOLM-13, replicates 1-3, µM for the other inhibitors
  GI50: 3 µM and 3.6 µM
[4]; Homo sapiens, MV4-11, 48 h
  GI50: 2.5 µM
[4]; Homo sapiens, MV4-11, MV4-11, replicates 1-3, µM for the other inhibitors
  GI50: 2.7 µM
[4]; MV4-11, replicates 1-3, µM for the other inhibitors
  GI50: 2.9 µM and 2 µM
[5]; ML-2, 48 h
  CD11b: 25.0% and 20.7% and 16.1%
  Cell viability: 86.1% and 82.9% and 82.7%
[6]; [12]
  CD11b (%): 30.8% and 39.8% and 27.7%
  Cell viability (%): 74.2% and 83.6% and 75%
